Structures can show the parent of a compound that is named as a salt. ± gives the uncertainty stated by the source.
What was measured:
[1] = tested on: KeratinoSens (HaCaT ARE-luciferase) cells; experiment: efficacy of ARE luciferase induction relative to DMSO (% activity over DMSO); higher = stronger induction; conditions: exposure time: 24 h
[2] = tested on: cysteine peptide Ac-RFAACAA-COOH; experiment: AC50 of cysteine peptide concentration-response (direction given by sign of efficacy); higher = less potent; conditions: incubation time: 24 h
[3] = tested on: THP-1; experiment: efficacy of IL-8 induction relative to DMSO (% activity); higher = stronger induction; conditions: exposure time: 18 h
[4] = tested on: lysine peptide Ac-RFAAKAA-COOH; experiment: efficacy of lysine peptide change (negative = depletion) (% activity); higher = less depletion; conditions: incubation time: 24 h
[5] = tested on: cysteine peptide Ac-RFAACAA-COOH; experiment: efficacy of cysteine peptide change (negative = depletion) (% activity); higher = less depletion; conditions: incubation time: 24 h
[6] = tested on: KeratinoSens (HaCaT ARE-luciferase) cells; experiment: cytotoxicity AC50 (CellTiter-Fluor viability); higher = less cytotoxic; conditions: exposure time: 24 h

Row | Structure (SMILES) | efficacy of lysine peptide change [4] | efficacy of cysteine peptide change [5] | efficacy of ARE luciferase induction [1] | AC50 [2] | efficacy of IL-8 induction [3] | cytotoxicity AC50 [6]
1 | OCc1ccco1 [Furfuryl alcohol] | -37.2 ± 5.8 | -74.1 ± 7.2 | 37.8 ± 37 | 74.3 ± 13 µM | 0 | 
2 | c1cc(OCC2CO2)cc(OCC2CO2)c1 (centres undefined) [Diglycidyl resorcinol ether (DGRE)] | 46.9 ± 8.6 | -8.5 ± 7.8 | 74.5 ± 5.8 |  | 29.2 ± 11 | 63.9 ± 12 µM
3 | Nc1ccc(-c2ccccc2)cc1 [4-Biphenylamine hydrochloride] | -3.96 ± 11 | -6.9 ± 6 | 12.3 ± 11 |  | 0 | 
4 | O=[N+]([O-])c1cc([N+](=O)[O-])c2ccccc2c1 [1,3-Dinitronaphthalene] | -15.1 ± 14 | -32.4 ± 17 | 29.3 ± 10 |  | 0 | 
5 | CCCCCCCCCCCCN(CCO)CCO [Lauryldiethanolamine] | 109 ± 17 | -45.7 ± 16 | -12.7 ± 56 |  | 30.1 ± 14 | 
6 | Cc1ccc(N=C=O)cc1N=C=O [Toluene-2,4-diisocyanate] | -3.03 ± 21 | -19.2 ± 5 | 82.9 ± 38 |  | 33 ± 3.5 | 
7 | CC[C@H]1CC[C@H](NCc2cc3c(cc2OC)[C@H]2C[C@H]2C(=O)N3C)[C@H](c2ccccc2)N1 |  |  | 82.8 ± 33 |  | 18.9 ± 3.4 | 26.4 ± 4.7 µM
8 | c1ccc(-c2cccc(-c3ccccc3)c2)cc1 [1,1':3',1''-Terphenyl] | 7.59 ± 13 | -4.8 ± 8.3 | 21.9 ± 16 |  | 9.01 ± 8.6 | 
9 | CCOP(=S)(OCC)Oc1cnc2ccccc2n1 [Quinalphos] | 10.6 ± 9.3 | 97.5 ± 350 | 37.5 ± 24 |  | 7.62 ± 6.8 | 
10 | CC1=C(C(=O)Nc2ccccc2)S(=O)(=O)CCO1 [Oxycarboxin] |  |  | 52.3 ± 47 |  | 0 | 32.9 ± 2.2 µM
11 | CCC(C)(NC(=O)c1cc(Cl)c(C)c(Cl)c1)C(=O)CCl (centres undefined) [Zoxamide] | 19.4 ± 7.3 | -8.25 ± 7.4 | 60.2 ± 4.2 |  | 84.9 ± 14 | 41.4 ± 2.8 µM
12 | CCCCCCC(C)O (centres undefined) [2-Octanol] | -5.58 ± 9.7 | 0 | 0 |  | 0 | 
13 | COc1ccc(O)c(C(C)(C)C)c1 [2-tert-Butyl-4-methoxyphenol] | 5.8 ± 5 | -37.3 ± 14 | 4.91 ± 25 |  | 1.96 ± 3.4 | 
14 | COc1ccc2[nH]cc(CCN(C(C)C)C(C)C)c2c1 [5-Methoxy-N,N-diisopropyltryptamine hydrochloride] | 138 ± 57 | -5.5 ± 9.5 | 19.1 ± 7.6 |  | 1.45 ± 2.5 | 
15 | CCCCCCCCN [n-Octylamine] | -6.29 ± 6.4 | 0 | 47.1 ± 74 |  | 0 | 
16 | CCCCCCCCCCC=CC1CC(=O)OC1=O (centres undefined) [3-(Dodecenyl)dihydro-2,5-furandione] | -22.7 ± 13 | 0 | 3.3 ± 5.7 |  | -1.83 ± 3.2 | 
17 | Fc1ccc(Oc2ccnc3cc(Cl)cc(Cl)c23)cc1 [Quinoxyfen] | -7.82 ± 12 | 3.98 ± 6.9 | -5.76 ± 35 |  | 25.9 ± 3.1 | 57 ± 12 µM
18 | CCC(C)(c1ccc(O)cc1)c1ccc(O)cc1 [Bisphenol B] | 31.9 ± 11 | 2.81 ± 4.9 | 38.7 ± 21 |  | 9.18 ± 8.1 | 
19 | COP(=O)(O)OP(=O)(O)OC [Dimethyl dihydrogen diphosphate] | 4.84 ± 8.4 | 0 | 22.1 ± 30 |  | 0 | 
20 | NCCc1ccc(O)cc1 [Tyramine] | -1.41 ± 14 | 10.7 ± 18 | 17 ± 9 |  | 0 | 
21 | CCCCCCCC/C=C\CCCCCCCC(=O)N(C)CC(=O)O [Oleyl sarcosine] | 3.95 ± 6.8 | -5.45 ± 4.8 | -5.73 ± 8.1 |  | 0 | 
22 | NNCc1ccccc1 [BENZYLHYDRAZINE HYDROCHLORIDE] |  | -43 ± 5.2 | 50.8 ± 24 | 35.6 ± 4.1 µM | 3.79 ± 6.6 | 
23 | CCCCCCCCCCCC(=O)NCCCN(C)C [N-[3-(Dimethylamino)propyl]dodecanamide] | 168 ± 11 | 18 ± 19 | 4.32 ± 44 |  | 36.3 ± 13 | 42.1 ± 9.5 µM

Continued, in another order:

Row | efficacy of lysine peptide change [4] | efficacy of cysteine peptide change [5] | Structure (SMILES) | efficacy of ARE luciferase induction [1] | AC50 [2] | efficacy of IL-8 induction [3] | cytotoxicity AC50 [6]
24 | 3.75 ± 13 | -96.8 ± 3.7 | COc1cc(C(C)(C)C)c(O)c(C(C)(C)C)c1 [2,6-Di-tert-butyl-4-methoxyphenol] | 17.3 ± 33 | 43.4 ± 7.4 µM | 0 | 
25 | 64.1 ± 7.7 | -4.4 ± 7.6 | CCCCCOc1ccccc1/C(=C\SC)n1ccnc1 [Neticonazole] | 21.4 ± 9.5 |  | 23.6 ± 1.8 | 
26 | 7.32 ± 13 | 4.82 ± 8.3 | CC(C)c1ccc2oc3nc(N)c(C(=O)O)cc3c(=O)c2c1 [Amlexanox] | 28.6 ± 29 |  | 8.52 ± 7.4 | 
27 | -8.69 ± 25 | 13.2 ± 15 | COC(=O)Nc1nc2cc([S+]([O-])c3ccccc3)ccc2[nH]1 (centres undefined) [Oxfendazole] | 0 |  | 2.33 ± 4 | 
28 | 93.9 ± 56 | 40.2 ± 6.4 | O=C(O)c1cccnc1Nc1cccc(C(F)(F)F)c1 [Niflumic acid] | 59.7 ± 37 |  | 0 | 
29 | 65.7 ± 12 | 1.83 ± 9.7 | Clc1ccc(C(Cn2ccnc2)OCc2c(Cl)cccc2Cl)c(Cl)c1 (centres undefined) [Isoconazole] | 15 ± 17 |  | 8.24 ± 7.5 | 13.1 ± 0.89 µM
30 | -3.6 ± 17 | -5.15 ± 8.9 | O=[N+]([O-])c1cc(Cl)c(Cl)c(Cl)c1Cl [2,3,4,5-Tetrachloronitrobenzene] | 42.4 ± 36 |  | 49.5 ± 10 | 44.9 ± 5.2 µM
31 | 50.2 ± 3.4 | -1.8 ± 3.1 | O=c1cc(-c2ccccc2)oc2ccccc12 [Flavone] | 27 ± 10 |  | 3.56 ± 6.2 | 
32 | 29.4 ± 1.8 | -4.91 ± 8.5 | CCC(=O)C=Cc1ccc(OC)cc1 [1-(4-Methoxyphenyl)-1-pentene-3-one] | -11.5 ± 51 |  | 0 | 
33 | -8.37 ± 1.2 | -39.2 ± 4.3 | NC(=O)N/N=C/c1ccc([N+](=O)[O-])o1 [Nitrofurazone] | 37 ± 47 |  | 0 | 
34 | 1.96 ± 25 | -8.26 ± 7.2 | Clc1ccc(C(Cn2ccnc2)OCc2ccc(Sc3ccccc3)cc2)c(Cl)c1 (centres undefined) [Fenticonazole nitrate] | 51.9 ± 25 |  | 3.64 ± 6.3 | 
35 | 0.13 ± 15 | -6.72 ± 6 | CC(C)CC(NC(=O)OCC1c2ccccc2-c2ccccc21)C(=O)O (stereo in doubt) [N-(9-Fluorenylmethoxycarbonyl)-L-leucine] | 65 ± 53 |  | 6.39 ± 11 | 
36 | 82.1 ± 16 | 4.33 ± 7.5 | C=C(C)C(=O)Nc1ccc(Cl)c(Cl)c1 [Chloranocryl] | 23.2 ± 7 |  | 1.33 ± 7.2 | 
37 | 34.2 ± 19 | 0.29 ± 11 | CC(=O)Oc1ccc(C2(c3ccc(OC(C)=O)cc3)C(=O)Nc3ccccc32)cc1 [Oxyphenisatin acetate] | 49 ± 42 |  | 0 | 

— the supplement of paper PMC10933113
